Columns and labels:
[1] = system: GM-CSF production from lymph node T-cells; assay: Amount of GM-CSF in lymph node cell culture supernatants of mice after oral dose (ELISA); type: in vivo, C57BL/6 mice; conditions: for suppressive effects on GM-CSF production from lymph node T-cells: oral high dose 1 mg/kg
Description: Compound 31 was orally administered to 8-week-old C57BL/6 mice (female) by using a probe. The dose employed 15 μg/kg (low dose) of compound 31 or 1 mg/kg (high dose) of compound 31 dissolved in 200 μL of mouse drinking water. As a control, 200 μL of mouse drinking water was administered alone.
2 days or 7 days after the oral administration of compound 31, each mouse was euthanized by cervical dislocation, and axillary and inguinal lymph nodes were collected. The collected lymph nodes were disrupted on BD Falcon Cell Strainer (Becton, Dickinson and Company) having a diameter of 40 μm, PBS was added, and the resultant was recovered into a 50-mL conical tube and centrifuged at 1500 rpm for 5 minutes, and then, a supernatant was removed by suction.
The recovered cells were suspended into a single cell suspension by adding 1000 μL of an RPMI medium (Life Technologies Corp.) containing 10% FBS (Fetal Bovine Serum; Life Technologies Corp.), and then, the number of cells was measured with a counting chamber.
On the day prior to the lymph node collection from the mice after the administration, an anti-CD3 monoclonal antibody (self-produced) and an anti-CD28 antibody (Becton, Dickinson and Company) were each adjusted to 1 μg/mL with PBS, placed at 50 μL to each well of BD Falcon 96-well flat bottom plate (Becton, Dickinson and Company), and stored at 4° C. so that the plate was coated with the anti-CD3/CD28 antibodies. The prepared single cell suspension was inoculated at 5×10^5 cells/well to the plate and then cultured at 37° C. for 48 hours in a 5% CO2 incubator to perform stimulation with the anti-CD3 antibody and the anti-CD28 antibody.
A supernatant was recovered, and the concentration of GM-CS contained in the culture supernatant was measured by using an ELISA kit (OptEIA Mouse GM-CSF ELISA set; Becton, Dickinson and Company) according to the attached document.

[2] = Disposition after single oral dose, cynomolgus monkey; type: in vivo; conditions: male cynomolgus monkey, 10 mg/kg single oral, 14C-labeled, fasting
Description: (§1) After a single dose of compound 31 labeled with ^14C was orally administered at a predetermined dose to each of a male mouse, a male rat, and a male cynomolgus monkey under fasting conditions, the concentration in blood was measured after a lapse of a given time, and parameters such as maximum plasma concentration Cmax, time Tmax to reach the maximum plasma concentration, half-life t1/2, area under curve AUC0-∞, mean retention time MRT0-∞, and bioavailability BA were calculated. The concentration in blood in humans (normal subjects) was measured and each of the parameters was calculated, in the similar manner as above except that ^14C-unlabeled compound 31 was used.
(§2) In the tables, “N.D.” means not detected.

[3] = Disposition after single oral dose, humans (normal subjects); type: in vivo, human; design: concentration in blood: unit not given here; conditions: for AUC(0-inf) / AUC(0-t) / half-life / Cmax / Tmax: human; for AUC(0-inf) / AUC(0-t) / half-life: blood; for AUC(0-inf) / AUC(0-t) / half-life / Cmax / Tmax / concentration in blood: normal subjects; for Cmax / Tmax: plasma
Description: as §1, §2
In this context, assuming the body weights of the humans were 60 kg, the doses were corrected to be the same, and the value of AUC0-∞ was compared between the mouse, the rat, and the cynomolgus monkey, and the humans. […] Specifically, AUC0-∞ for the humans was 2.72 to 8.94 times AUC0-∞ for the mouse, 4.77 to 15.7 times AUC0-∞ for the rat, and 6.69 to 22.0 times AUC0-∞ for the cynomolgus monkey.

AUC(0-inf) ([2]; blood): 2380 ng·h/mL
AUC(0-t) ([2]; blood): 2260 ng·h/mL
half-life ([2]; blood): 39.2 h
MRT inf ([2]; blood, read-out: MRT0-∞): 60.9 h
BA [2]: 0.11%
Rate of absorption [2]: 0.41%
concentration in blood ([2]; 4 h): 1.92
concentration in blood ([2]; 8 h): 9.59
concentration in blood ([2]; 12 h): 33.4
concentration in blood ([2]; 24 h): 35.2
concentration in blood ([2]; 48 h): 26.5
concentration in blood ([2]; 72 h): 13
concentration in blood ([2]; 96 h): 7.1
concentration in blood ([2]; 120 h): 4.21
concentration in blood ([2]; 144 h): 2.83
concentration in blood ([2]; 168 h): 2.05
Cmax ([2]; plasma): 39.4 ng/mL
Tmax ([2]; plasma): 28 h
species difference (fold) of dose-corrected AUC0-∞, human vs cynomolgus monkey ([3]; human 0.3 mg/body (60 kg assumed) vs cynomolgus monkey 10 mg/kg): 19.70 fold
species difference (fold) of dose-corrected AUC0-∞, human vs mouse ([3]; human 0.3 mg/body (60 kg assumed) vs mouse 5 mg/kg): 8.01 fold
species difference (fold) of dose-corrected AUC0-∞, human vs rat ([3]; human 0.3 mg/body (60 kg assumed) vs rat 10 mg/kg): 14.05 fold
species difference (fold) of dose-corrected AUC0-∞, human vs cynomolgus monkey ([3]; human 1 mg/body (60 kg assumed) vs cynomolgus monkey 10 mg/kg): 21.99 fold
species difference (fold) of dose-corrected AUC0-∞, human vs mouse ([3]; human 1 mg/body (60 kg assumed) vs mouse 5 mg/kg): 8.94 fold
species difference (fold) of dose-corrected AUC0-∞, human vs rat ([3]; human 1 mg/body (60 kg assumed) vs rat 10 mg/kg): 15.69 fold
species difference (fold) of dose-corrected AUC0-∞, human vs cynomolgus monkey ([3]; human 3 mg/body (60 kg assumed) vs cynomolgus monkey 10 mg/kg): 12.29 fold
species difference (fold) of dose-corrected AUC0-∞, human vs mouse ([3]; human 3 mg/body (60 kg assumed) vs mouse 5 mg/kg): 5.00 fold
species difference (fold) of dose-corrected AUC0-∞, human vs rat ([3]; human 3 mg/body (60 kg assumed) vs rat 10 mg/kg): 8.77 fold
species difference (fold) of dose-corrected AUC0-∞, human vs cynomolgus monkey ([3]; human 10 mg/body (60 kg assumed) vs cynomolgus monkey 10 mg/kg): 9.62 fold
species difference (fold) of dose-corrected AUC0-∞, human vs mouse ([3]; human 10 mg/body (60 kg assumed) vs mouse 5 mg/kg): 3.91 fold
species difference (fold) of dose-corrected AUC0-∞, human vs rat ([3]; human 10 mg/body (60 kg assumed) vs rat 10 mg/kg): 6.86 fold
species difference (fold) of dose-corrected AUC0-∞, human vs cynomolgus monkey ([3]; human 30 mg/body (60 kg assumed) vs cynomolgus monkey 10 mg/kg): 6.69 fold
species difference (fold) of dose-corrected AUC0-∞, human vs mouse ([3]; human 30 mg/body (60 kg assumed) vs mouse 5 mg/kg): 2.72 fold
species difference (fold) of dose-corrected AUC0-∞, human vs rat ([3]; human 30 mg/body (60 kg assumed) vs rat 10 mg/kg): 4.77 fold
AUC(0-inf) ([3]; 0.3 mg/body oral): 23.4 ng·h/mL
AUC(0-t) ([3]; 0.3 mg/body oral): 11.7 ng·h/mL
half-life ([3]; 0.3 mg/body oral): 21.4 h
AUC(0-inf) ([3]; 1 mg/body oral): 87.1 ng·h/mL
AUC(0-t) ([3]; 1 mg/body oral): 63.4 ng·h/mL
half-life ([3]; 1 mg/body oral): 44.3 h
AUC(0-inf) ([3]; 3 mg/body oral): 146 ng·h/mL
AUC(0-t) ([3]; 3 mg/body oral): 121 ng·h/mL
half-life ([3]; 3 mg/body oral): 47.8 h
AUC(0-inf) ([3]; 10 mg/body oral): 381 ng·h/mL
AUC(0-t) ([3]; 10 mg/body oral): 324 ng·h/mL
half-life ([3]; 10 mg/body oral): 45.3 h
AUC(0-inf) ([3]; 30 mg/body oral): 795 ng·h/mL
AUC(0-t) ([3]; 30 mg/body oral): 657 ng·h/mL
half-life ([3]; 30 mg/body oral): 53.6 h
Cmax ([3]; 0.3 mg/body oral): 0.629 ng/mL
Tmax ([3]; 0.3 mg/body oral): 13 h
Cmax ([3]; 1 mg/body oral): 1.49 ng/mL
Tmax ([3]; 1 mg/body oral): 20.7 h
Cmax ([3]; 3 mg/body oral): 2.11 ng/mL
Tmax ([3]; 3 mg/body oral): 28.3 h
Cmax ([3]; 10 mg/body oral): 6.01 ng/mL
Tmax ([3]; 10 mg/body oral): 26.3 h
Cmax ([3]; 30 mg/body oral): 9.81 ng/mL
Tmax ([3]; 30 mg/body oral): 28.3 h
concentration in blood ([3]; 0.3 mg/body oral, 6 h): 0.368
concentration in blood ([3]; 0.3 mg/body oral, 13 h): 0.629
concentration in blood ([3]; 0.3 mg/body oral, 21 h): 0.365
concentration in blood ([3]; 0.3 mg/body oral, 24 h): 0.31
concentration in blood ([3]; 0.3 mg/body oral, 30 h): 0.382
concentration in blood ([3]; 1 mg/body oral, 6 h): 0.368
concentration in blood ([3]; 1 mg/body oral, 13 h): 1.39
concentration in blood ([3]; 1 mg/body oral, 21 h): 1.04
concentration in blood ([3]; 1 mg/body oral, 24 h): 0.98
concentration in blood ([3]; 1 mg/body oral, 30 h): 0.961
concentration in blood ([3]; 1 mg/body oral, 36 h): 1.01
concentration in blood ([3]; 1 mg/body oral, 48 h): 0.719
concentration in blood ([3]; 1 mg/body oral, 72 h): 0.484
concentration in blood ([3]; 1 mg/body oral, 96 h): 0.224
concentration in blood ([3]; 3 mg/body oral, 6 h): 0.337
concentration in blood ([3]; 3 mg/body oral, 13 h): 1.13
concentration in blood ([3]; 3 mg/body oral, 21 h): 1.33
concentration in blood ([3]; 3 mg/body oral, 24 h): 1.33
concentration in blood ([3]; 3 mg/body oral, 30 h): 1.7
concentration in blood ([3]; 3 mg/body oral, 36 h): 1.99
concentration in blood ([3]; 3 mg/body oral, 48 h): 1.37
concentration in blood ([3]; 3 mg/body oral, 72 h): 0.838
concentration in blood ([3]; 3 mg/body oral, 96 h): 0.549
concentration in blood ([3]; 3 mg/body oral, 144 h): 0.266
concentration in blood ([3]; 10 mg/body oral, 6 h): 2.01
concentration in blood ([3]; 10 mg/body oral, 13 h): 3.32
concentration in blood ([3]; 10 mg/body oral, 21 h): 3.15
concentration in blood ([3]; 10 mg/body oral, 24 h): 3.33
concentration in blood ([3]; 10 mg/body oral, 30 h): 3.76
concentration in blood ([3]; 10 mg/body oral, 36 h): 5.37
concentration in blood ([3]; 10 mg/body oral, 48 h): 3.66
concentration in blood ([3]; 10 mg/body oral, 72 h): 2.23
concentration in blood ([3]; 10 mg/body oral, 96 h): 1.42
concentration in blood ([3]; 10 mg/body oral, 144 h): 0.689
concentration in blood ([3]; 30 mg/body oral, 6 h): 2.82
concentration in blood ([3]; 30 mg/body oral, 13 h): 6.65
concentration in blood ([3]; 30 mg/body oral, 21 h): 6.98
concentration in blood ([3]; 30 mg/body oral, 24 h): 7.47
concentration in blood ([3]; 30 mg/body oral, 30 h): 8.08
concentration in blood ([3]; 30 mg/body oral, 36 h): 9.46
concentration in blood ([3]; 30 mg/body oral, 48 h): 6.58
concentration in blood ([3]; 30 mg/body oral, 72 h): 4.65
concentration in blood ([3]; 30 mg/body oral, 96 h): 3.05
concentration in blood ([3]; 30 mg/body oral, 144 h): 1.82
Compound: CCCCCCCCCCCCCCCCCCCCCCCC(=O)NC(COC1OC(CO)C(O)C(O)C1O)[C@H](O)C(O)CCCCC (stereo in doubt) [compound 31, (2S,3S,4R)-1-O-(α-D-galactosyl)-2-(N-tetracosanoylamino)-1,3,4-nonanetriol]
suppressive effects on GM-CSF production from lymph node T-cells ([1]; 2nd day after administration): not seen
suppressive effects on GM-CSF production from lymph node T-cells ([1]; 7th day after administration): observed
GM-CSF production from lymph node T-cells ([1]; oral low dose 15 μg/kg, anti-CD3/CD28 stimulation 48 h, vs vehicle): significantly suppressed

Reference: patent US12447167B2, “GM-CSF-producing t-cell control agent and Th1/Th2 immune balance regulator” (National Center of Neurology and Psychiatry, priority 2014, dated 2025)
